Results from patent publication US10662164B2, “Non-beta lactam antibiotics” (University of Notre Dame du Lac, priority 2014, dated 2020).
≈ marks a conversion by molar mass, not a printed value. Entries after “also recorded” stand apart in the source; their conditions may differ. Like-named read-outs stand apart in the source and are kept apart here.

Assays:
S. aureus ATCC 29213 = assay: MIC determination; type: cell-based, Staphylococcus aureus; conditions: for MIC: Staphylococcus aureus; for antibacterial activity in words (SAR, C/D ring derivatives): S. aureus ATCC29213, second numbering, compounds of Scheme 6; for antibacterial activity in words (SAR, ring A derivatives): S. aureus ATCC 29213, compounds of Schemes 3-4
E. faecium NCTC 7171 = assay: MIC determination; type: cell-based, Enterococcus faecium; conditions: for MIC: Enterococcus faecium
[1] = ATCC29213, Table 3.1 and SAR text, compounds of Schemes 2-4, read-out: S. aureus ATCC 29213 MIC
[2] = NCTC7171, Table 3.1, compounds of Schemes 2-4, read-out: E. faecium NCTC 7171 MIC
[3] = ATCC29213, read-out: S. aureus ATCC 29213 MIC
[4] = NCTC7171, read-out: E. faecium NCTC 7171 MIC
[5] = Table 3.1, compounds of Schemes 2-4

| SMILES | MIC (S. aureus ATCC 29213; [1]) [µg/mL] | MIC (E. faecium NCTC 7171; [2]) [µg/mL] | other results |
| --- | --- | --- | --- |
| Nc1cc(-c2nc(-c3ccc(Oc4ccc(F)cc4)cc3)no2)cnc1O [Compound 121c] | > 128 | 128 (≈ 351 µM) |  |
| Nc1c[nH]nc1-c1nc(-c2ccc(Oc3ccccc3)cc2)no1 [Compound 64a] |  |  | antibacterial activity in words (SAR, C/D ring derivatives) (S. aureus ATCC 29213): retained activity; MIC (S. aureus ATCC 29213; [3]): 16 µg/mL (≈ 50.1 µM); MIC (E. faecium NCTC 7171; [4]): 32 µg/mL (≈ 100 µM) |
| Nc1ccc(-c2nc(-c3ccc(Oc4ccc(F)cc4)cc3)no2)cc1 [Compound 58c] | > 128 | > 128 | antibacterial activity in words (SAR, ring A derivatives) (S. aureus ATCC 29213): no antibiotic activity; also recorded: inactive |
| [O-][n+]1ccc(-c2nc(-c3ccc(Oc4ccccc4)cc3)no2)cc1 [Compound 115a] | > 128 | 64 (≈ 193 µM) | antibacterial activity in words (SAR, ring A derivatives) (S. aureus ATCC 29213): No activity |
| FC(F)(F)c1ccc(Oc2ccc(-c3noc(-c4n[nH]cc4NC4CCCC4)n3)cc2)cc1 [Compound 107b] | > 128 | > 128 | antibacterial activity in words (SAR, ring A derivatives) (S. aureus ATCC 29213): did not extend |
| FC(F)(F)c1ccc(Oc2ccc(-c3noc(-c4n[nH]cc4NC4CCCCC4)n3)cc2)cc1 [Compound 106b] | > 128 | 128 (≈ 273 µM) | antibacterial activity in words (SAR, ring A derivatives) (S. aureus ATCC 29213): did not extend |
| Nc1ccc(-c2nc(-c3ccc(Oc4ccccc4)cc3)no2)c(O)c1 [Compound 98a] | > 128 | > 128 |  |
| CS(=O)(=O)Nc1ccc(-c2nc(-c3ccc(Oc4ccc(C(F)(F)F)cc4)cc3)no2)cc1 [Compound 86b] | > 128 | 32 (≈ 67.3 µM) |  |
| COc1ccc(-c2nc(-c3ccc(Oc4ccc(F)cc4)cc3)no2)cc1OC [Compound 101c] | > 128 | > 128 |  |
| COc1ccc(-c2nc(-c3ccc(Oc4ccc(F)cc4)cc3)no2)cc1[N+](=O)[O-] [Compound 99c] | > 128 | > 128 |  |
| Oc1c(F)cc(-c2nc(-c3ccc(Oc4ccc(C(F)(F)F)cc4)cc3)no2)cc1F [Compound 73b] | 4 (≈ 9.21 µM) | 4 (≈ 9.21 µM) |  |
| Fc1ccc(Oc2ccc(-c3noc(-c4cnc[nH]4)n3)cc2)cc1 [Compound 76c] | > 128 | 128 (≈ 397 µM) | antibacterial activity in words (SAR, ring A derivatives) (S. aureus ATCC 29213): no activity |
| NS(=O)(=O)c1ccc(-c2nc(-c3ccc(Oc4ccc(C(F)(F)F)cc4)cc3)no2)cc1 [Compound 87b] | > 128 | 128 (≈ 277 µM) |  |
| FC(F)(F)c1ccc(Oc2ccc(-c3noc(-c4cc[nH]n4)n3)cc2)cc1 [Compound 102b] | > 128 | 64 (≈ 172 µM) |  |
| COc1cc(-c2nc(-c3ccc(Oc4ccccc4)cc3)no2)ccc1N [Compound 94a] | > 128 | > 128 |  |
| CCCCNc1c[nH]nc1-c1nc(-c2ccc(Oc3ccc(C(F)(F)F)cc3)cc2)no1 [Compound 104b] | > 128 | > 128 | antibacterial activity in words (SAR, ring A derivatives) (S. aureus ATCC 29213): did not extend |
| Fc1ccc(Oc2ccc(-c3noc(-c4cc[nH]n4)n3)cc2)cc1 [Compound 102c] | > 128 | 32 (≈ 99.3 µM) |  |

| SMILES | MIC (S. aureus ATCC 29213; [1]) [µg/mL] | MIC (E. faecium NCTC 7171; [2]) [µg/mL] | other results |
| --- | --- | --- | --- |
| Nc1cncc(-c2nc(-c3ccc(Oc4ccc(F)cc4)cc3)no2)c1 [Compound 122c] | > 128 | 128 (≈ 367 µM) |  |
| FC(F)(F)c1ccc(Oc2ccc(-c3noc(-c4c[nH]c5ncccc45)n3)cc2)cc1 [Compound 125b] | > 128 | 32 (≈ 75.8 µM) |  |
| C[Si](C)(C)C#Cc1c[nH]nc1-c1nc(-c2ccc(Oc3ccc(C(F)(F)F)cc3)cc2)no1 [Compound 103b, 3-(4-(4-Trifluoromethyl)phenoxy)phenyl)-5-(4-((trimethylsilyl)ethynyl-1H-pyrazol-3-yl)-1,2,4-oxadiazole] |  |  | S. aureus ATCC 29213 MIC (S. aureus ATCC 29213; [5]): >128 µg/mL; E. faecium NCTC 7171 MIC (E. faecium NCTC 7171; [5]): >128 µg/mL |
| O=[N+]([O-])c1cc(-c2nc(-c3ccc(Oc4ccc(F)cc4)cc3)no2)ccc1O [Compound 91c] | > 128 | > 128 | antibacterial activity in words (SAR, ring A derivatives) (S. aureus ATCC 29213): failed to show significant activity |
| COc1ccc(-c2nc(-c3ccc(Oc4ccccc4)cc3)no2)cc1[N+](=O)[O-] [Compound 99a] | > 128 | 128 (≈ 329 µM) |  |
| COc1ccc(-c2nc(-c3ccc(Oc4ccc(C(F)(F)F)cc4)cc3)no2)cc1OC [Compound 101b] | > 128 | > 128 |  |
| c1ccc(Oc2ccc(-c3noc(C4CCOCC4)n3)cc2)cc1 [Compound 131a] | > 128 | > 128 |  |
| CCOP(=O)(OCC)c1c[nH]nc1-c1nc(-c2ccc(Oc3ccc(C(F)(F)F)cc3)cc2)no1 [Compound 111b] |  |  | MIC (S. aureus ATCC 29213; [3]): > 128 µg/mL; MIC (E. faecium NCTC 7171; [4]): > 128 µg/mL |
| Nc1ccc(-c2nc(-c3ccc(Oc4ccccc4)cc3)no2)cc1F [Compound 72a] |  |  | antibacterial activity in words (SAR, C/D ring derivatives) (S. aureus ATCC 29213): inactive; MIC (S. aureus ATCC 29213; [3]): > 128 µg/mL; MIC (E. faecium NCTC 7171; [4]): > 32 µg/mL |
| Nc1cncc(-c2nc(-c3ccc(Oc4ccc(C(F)(F)F)cc4)cc3)no2)c1 [Compound 122b] | > 128 | > 128 |  |
| Oc1nc(-c2ccc(Oc3ccccc3)cc2)no1 [Compound 112a] | > 128 | > 128 | antibacterial activity in words (SAR, ring A derivatives) (S. aureus ATCC 29213): abolishes activity |
| COc1ccc(-c2nc(-c3ccc(Oc4ccccc4)cc3)no2)cc1N [Compound 100a] | > 128 | > 128 |  |
| Fc1ccc(Oc2ccc(-c3noc(-c4c[nH]c5ncccc45)n3)cc2)cc1 [Compound 125c] | > 128 | 64 (≈ 172 µM) |  |
| FC(F)(F)c1ccc(Oc2ccc(-c3noc(-c4nc[nH]n4)n3)cc2)cc1 [Compound 116b] | > 128 | > 128 | antibacterial activity in words (SAR, ring A derivatives) (S. aureus ATCC 29213): No activity |
| Oc1ccccc1-c1nc(-c2ccc(Oc3ccccc3)cc2)no1 [Compound 97a] | > 128 | > 128 | antibacterial activity in words (SAR, ring A derivatives) (S. aureus ATCC 29213): failed to show significant activity |
| Oc1ccc(-c2nc(-c3ccc(Oc4ccc(F)cc4)cc3)no2)cn1 [Compound 120c] | > 128 | 64 (≈ 183 µM) |  |

Second part, led by results:

| MIC (S. aureus ATCC 29213; [1]) [µg/mL] | MIC (E. faecium NCTC 7171; [2]) [µg/mL] | SMILES | other results |
| --- | --- | --- | --- |
| 8 (≈ 18 µM) | 4 (≈ 9 µM) | O=[N+]([O-])c1cc(-c2nc(-c3ccc(Oc4ccc(C(F)(F)F)cc4)cc3)no2)cnc1O [Compound 77b] |  |
| 8 (≈ 19.2 µM) | 64 (≈ 154 µM) | O=[N+]([O-])c1c[nH]c(-c2nc(-c3ccc(Oc4ccc(C(F)(F)F)cc4)cc3)no2)c1 [Compound 78b] | antibacterial activity in words (SAR, ring A derivatives) (S. aureus ATCC 29213): retained good activity |
| 1 (≈ 2.61 µM) | 16 (≈ 41.8 µM) | Brc1c[nH]nc1-c1nc(-c2ccc(Oc3ccccc3)cc2)no1 [61a] |  |
| 4 (≈ 11 µM) | 8 (≈ 22 µM) | Oc1ccc(-c2nc(-c3ccc(Oc4ccc(F)cc4)cc3)no2)cc1O [Compound 69c] |  |
| ≥ 32 | 32 (≈ 103 µM) | NCCCCc1nc(-c2ccc(Oc3ccccc3)cc2)no1 [Compound 137a] |  |
| 2 (≈ 5.66 µM) | 2 (≈ 5.66 µM) | c1ccc(Oc2ccc(-c3noc(-c4ccc5[nH]ccc5c4)n3)cc2)cc1 [Compound 75a] |  |
| 1 (≈ 2.52 µM) | 2 (≈ 5.03 µM) | Nc1ccc(-c2nc(-c3ccc(Oc4ccc(C(F)(F)F)cc4)cc3)no2)cc1 [Compound 58b] |  |
| 2 (≈ 5.39 µM) | 2 (≈ 5.39 µM) | Fc1ccc(Oc2ccc(-c3noc(-c4ccc5[nH]ccc5c4)n3)cc2)cc1 [Compound 75c] |  |
| 2 (≈ 4.82 µM) | 2 (≈ 4.82 µM) | Nc1ccc(-c2nc(-c3ccc(Oc4ccc(C(F)(F)F)cc4)cc3)no2)cc1F [Compound 72b] |  |
| 8 (≈ 20.3 µM) | 4 (≈ 10.1 µM) | O=[N+]([O-])c1cc(-c2nc(-c3ccc(Oc4ccc(F)cc4)cc3)no2)cnc1O [Compound 77c] |  |
| 16 (≈ 42.9 µM) | > 128 | FC(F)(F)c1ccc(Oc2ccc(-c3noc(-c4cnn[nH]4)n3)cc2)cc1 [Compound 117b] | antibacterial activity in words (SAR, ring A derivatives) (S. aureus ATCC 29213): No activity |
| 1 (≈ 3.03 µM) | 1 (≈ 3.03 µM) | Oc1ccc(-c2nc(-c3ccc(Oc4ccccc4)cc3)no2)cc1 [Compound 57a] |  |
| 128 (≈ 381 µM) | 64 (≈ 190 µM) | Nc1c[nH]c(-c2nc(-c3ccc(Oc4ccc(F)cc4)cc3)no2)c1 [Compound 126c] | antibacterial activity in words (SAR, ring A derivatives) (S. aureus ATCC 29213): No activity |
| 4 (≈ 11.5 µM) | 4 (≈ 11.5 µM) | Oc1ccc(-c2nc(-c3ccc(Oc4ccccc4)cc3)no2)cc1F [Compound 70a] |  |
| 8 (≈ 20.7 µM) | > 128 | C=CCOc1cc(N)ncc1-c1nc(-c2ccc(Oc3ccccc3)cc2)no1 [Compound 79a] |  |
